Reference: US20220264883A1, “IMIDAZOTHIAZOLE COMPOUNDS AND METHODS FOR TREATING PLANT NEMATODE INFECTIONS” (The Governing Council of the University of Toronto, priority 2019, published 2022)

Experiments:
[1] = Limit of solubility / precipitation in assay media; assay type: physicochemical; conditions: 100 μM in water, 0.5% DMSO (zebrafish assay)
S. cerevisiae = assay: Saccharomyces cerevisiae (budding yeast) dose-response experiments; assay type: cell-based; conditions: non-target system; growth over 18 hours
Method: A saturated culture of the yeast strain RY0568 was diluted to an OD600 of 0.015 with fresh YPD media (see ref. 62). 100 μL of this dilute yeast suspension was added to each well of a 96-well plate. The yeast were grown for 4 hours at 30° C. with shaking at 140 rpm. Using a multichannel pipette, 1 μL of chemical solution was added to each well to achieve the desired final concentrations. The final DMSO concentration was 1% (v/v). The microwell plate was then loaded into a TECAN plate reader set at 30° C. The OD600 of each well was measured over an 18-hour period, and the plate was shaken intermittently throughout the run. The areas under the resultant growth curves were calculated using R scripts adapted from those found in the MESS package. The area under the curve at each concentration of a dose-response assay was divided by the area under the curve for the corresponding DMSO control, resulting in a “relative fitness” value for each concentration tested. Three biological replicates were performed for each dose-response experiment, and the relative fitness values were averaged across the three replicates.

D. rerio = assay: Danio rerio (zebrafish) embryo dose-response experiments; assay type: in vivo; conditions: non-target system; embryos, 24 hours exposure
Method: Zebrafish chemical assays were performed similarly to previously described methods^63. In brief, fish were maintained at 28.5° C. on a 14/10 hour light/dark cycle and staged according to hours post fertilization (hpf). For each biological replicate, eggs from LT fish (AB/Tubingen strain) were collected at 4 hpf. At 24 hpf, embryos were arrayed in 24 well plates, 10 per well. In 2 ml tubes, 4 μl of chemical dissolved in DMSO at the appropriate concentration was added to 800 μl of water and then vortexed for 30 s intensively. Water was removed from the embryos in the wells and 800 μl of chemical-treated water was transferred to each of the wells. The DMSO control wells contained DMSO alone. The final DMSO concentration in every well was 0.5% (v/v). […] The embryos were incubated in the chemicals for 24 hours and scored for death and toxicity at 48 hpf. Toxicity was defined as the embryos showing developmental defects such as a curved body, reduced body size, skin whiteness, and heart edema. “Relative viability” was calculated by dividing the number of viable and properly developed embryos in the treatment wells by the average number of viable and properly developed embryos across six DMSO control wells. Three biological replicates were performed for each dose-response experiment, and the relative viability values were averaged across the three replicates.

Clc1ccc(-c2cn3ccsc3n2)cc1 [Ia]
compound precipitation [1]: Some compound precipitation was observed
S. cerevisiae LC50 (S. cerevisiae): inactive
D. rerio LC50 (D. rerio): inactive
